Assay results taken from US12624034B2, “Non-covalent modifiers of AKT1 and uses thereof” (Terremoto Biosciences, Inc., priority 2023, dated 2026).
Where two headings read alike, the source gives them in different places.

Experiments:
[1] = target: T1, AKT1 WT (Homo sapiens, UniProt P31749); experiment: Live cell AKT1 WT target engagement by NanoBRET competitive probe displacement in HEK293 cells; format: binding; details: 2 h at 37° C., read-out: AKT1 WT IC50
T1 construct: expressed in transfected cells; host or cells: HEK293
T1 sequence (P31749 whole entry): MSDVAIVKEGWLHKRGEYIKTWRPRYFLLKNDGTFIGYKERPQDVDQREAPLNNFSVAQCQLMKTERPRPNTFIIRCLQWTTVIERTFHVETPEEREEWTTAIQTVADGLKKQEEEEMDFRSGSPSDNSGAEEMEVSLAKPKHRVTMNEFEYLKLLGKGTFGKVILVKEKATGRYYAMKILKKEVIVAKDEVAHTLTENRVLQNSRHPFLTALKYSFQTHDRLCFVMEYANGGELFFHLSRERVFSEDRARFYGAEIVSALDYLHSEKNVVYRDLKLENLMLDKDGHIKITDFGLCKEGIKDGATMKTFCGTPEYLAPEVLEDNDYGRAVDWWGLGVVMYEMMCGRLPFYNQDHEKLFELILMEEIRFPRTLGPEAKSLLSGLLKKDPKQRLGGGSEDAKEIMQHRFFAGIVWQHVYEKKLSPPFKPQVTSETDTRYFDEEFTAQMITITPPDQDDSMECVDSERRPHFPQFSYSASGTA

[2] = target: T2, AKT2 (Homo sapiens, UniProt P31751); experiment: Live cell AKT2 target engagement by NanoBRET competitive probe displacement in HEK293 cells; format: binding; details: 2 h at 37° C., read-out: AKT2 IC50
T2 construct: expressed in transfected cells; host or cells: HEK293
T2 sequence (P31751 whole entry): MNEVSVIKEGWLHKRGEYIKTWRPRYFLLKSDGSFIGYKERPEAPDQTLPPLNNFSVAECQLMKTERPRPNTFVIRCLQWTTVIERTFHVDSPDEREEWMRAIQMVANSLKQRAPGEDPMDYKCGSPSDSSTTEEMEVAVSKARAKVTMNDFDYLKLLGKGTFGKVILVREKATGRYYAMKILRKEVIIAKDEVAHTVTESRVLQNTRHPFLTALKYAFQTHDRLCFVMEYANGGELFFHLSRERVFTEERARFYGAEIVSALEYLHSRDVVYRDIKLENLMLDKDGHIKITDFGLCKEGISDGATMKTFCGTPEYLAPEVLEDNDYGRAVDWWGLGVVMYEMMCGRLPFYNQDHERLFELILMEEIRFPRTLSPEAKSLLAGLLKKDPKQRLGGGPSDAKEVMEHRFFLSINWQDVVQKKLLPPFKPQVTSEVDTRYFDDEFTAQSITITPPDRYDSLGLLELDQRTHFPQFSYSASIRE

[3] = target: T3, AKT1 E17K (Homo sapiens, UniProt P31749, E17K); experiment: Live cell AKT1 E17K target engagement by NanoBRET competitive probe displacement in HEK293 cells; format: binding; details: 2 h at 37° C.
T3 construct: expressed in transfected cells; host or cells: HEK293
T3 sequence (P31749 whole entry E17K): as the sequence (P31749 whole entry) above, with E17K counted along it
Procedure, shortened: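 HEK293 cells transiently expressing kinase–NanoLuciferase fusions (overnight transfection) were exposed to serially diluted compound plus a fluorescent ATP-competitive tracer at ~EC50 for 2 h at 37° C. After substrate and extracellular luciferase inhibitor, emission at 460 and 600 nm gave the BRET ratio (E600/E460); IC50 from Hill fit.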

[4] = test system: LAPC4 prostate cancer cells, which express the AKT1 E17K allele; experiment: Antiproliferative effects in LAPC4 cells (CellTiter Glo, 72 h); format: cell-based; details: Homo sapiens, LAPC4, 72 h, read-out: LAPC4 proliferation IC50
Procedure, shortened: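 LAPC4 cells were cultured in IMDM with 12% FBS and 1% P/S, seeded at 1,000 cells/well and exposed to compound dilutions in DMSO. After 72 h, intracellular ATP was measured by CellTiter Glo luminescence, and IC50 values came from a log(inhibitor) vs. response Hill fit.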

[5] = NanoBRET live cell target engagement, HEK293 cells
[6] = NanoBRET competitive probe displacement, live HEK293 cells

SMILES	IC50 [1, 5] [nM]	IC50 [2, 5] [nM]	IC50 [3, 5] [nM]	IC50 [4] [nM]	IC50 [1, 6] [nM]	IC50 [2, 6] [nM]	IC50 [3, 6] [nM]
Nc1ncccc1-c1nc2ccc(-n3cccn3)nc2n1-c1ccc2c(c1)CC[C@@H]2NC(=O)c1ccc(O)c(O)c1 [Compound 323]	45.6	594	112	713	–	–	–
Nc1ncccc1-c1nc2ccc(-n3ccc(F)n3)nc2n1-c1ccc2c(c1)CC[C@@H]2NC1CCN(c2ccccn2)CC1 [Compound 367]	74.4	2520	735	6330	–	–	–
COc1nccc(C(=O)N[C@H]2CCc3cc(-n4c(-c5cccnc5N)nc5ccc(-n6cccn6)nc54)ccc32)c1Cl [Compound 281]	3.63	18.3	75.5	950	–	–	–
Nc1ncccc1-c1nc2ccc(-n3cccn3)nc2n1-c1ccc2c(c1)CC[C@@H]2NC1CCN(C(=O)C2(F)CC2)CC1 [Compound 370]	58.4	1720	810	> 10000	–	–	–
Nc1ncccc1-c1nc2ccc(-n3cccn3)nc2n1-c1ccc2c(c1)CC[C@@H]2NC1CCc2cnccc21 (single isomer, unassigned) [Compound 474]	–	–	–	2730	14.9	423	196
Cc1ccc(C(=O)N[C@H]2CCc3cc(-n4c(-c5cccnc5N)nc5ccc(-n6cccn6)nc54)ccc32)cn1 [Compound 26, (S)—N-(5-(2-(2-aminopyridin-3-yl)-5-(1H-pyrazol-1-yl)-3H-imidazo[4,5-b]pyridin-3-yl)-2,3-dihydro-1H-inden-1-yl)-6-methylnicotinamide]	6.46	69.6	26.8	1060	–	–	–
COc1cc(C(=O)N[C@H]2CCc3cc(-n4c(-c5ccccc5F)nc5ccc(-n6cccn6)nc54)ccc32)ccn1 [Compound 402]	–	–	–	3000	7.99	477	53.3
Nc1ncccc1-c1nc2ccc(-n3cccn3)nc2n1-c1ccc2c(c1)CC[C@@H]2NC(=O)c1ccnc2occc12 [Compound 282]	5.86	68.9	84.2	1310	–	–	–
Cc1cncc(C(=O)N[C@H]2CCc3cc(-n4c(-c5cccnc5N)nc5ccc(-n6cccn6)nc54)ccc32)c1 [Compound 30, (S)—N-(5-(2-(2-aminopyridin-3-yl)-5-(1H-pyrazol-1-yl)-3H-imidazo[4,5-b]pyridin-3-yl)-2,3-dihydro-1H-inden-1-yl)-5-methylnicotinamide]	10.6	127	51.1	721	–	–	–
Nc1ncccc1-c1nc2ccc(-n3nccn3)nc2n1-c1ccc2c(c1)CC[C@@H]2NC(=O)c1cnc(C(F)F)s1 [Compound 427]	–	–	–	1710	9.56	1080	101
Cn1cc(C(=O)N[C@H]2CCc3cc(-n4c(-c5cccnc5N)nc5ccc(-n6cccn6)nc54)ccc32)cn1 [Compound 39, (S)—N-(5-(2-(2-aminopyridin-3-yl)-5-(1H-pyrazol-1-yl)-3H-imidazo[4,5-b]pyridin-3-yl)-2,3-dihydro-1H-inden-1-yl)-1-methyl-1H-pyrazole-4-carboxamide]	49.2	754	211	5190	–	–	–
Cn1ccc(N2CCC(N[C@H]3CCc4cc(-n5c(-c6cccnc6N)nc6ccc(-n7cccn7)nc65)ccc43)CC2)n1 [Compound 276]	47.4	1200	> 1000	> 10000	–	–	–
Nc1ncccc1-c1nc2ccc(-n3cccn3)nc2n1-c1ccc2c(c1)CC[C@@H]2NC(=O)c1ccc(C2CC2)nc1 [Compound 46, N-[(1S)-5-[2-(2-aminopyridin-3-yl)-5-(pyrazol-1-yl)imidazo[4,5-b]pyridin-3-yl]-2,3-dihydro-1H-inden-1-yl]-6-cyclopropylpyridine-3-carboxamide]	6.94	17	15	331	–	–	–
Nc1ncccc1-c1nc2ccc(-n3cccn3)nc2n1-c1ccc2c(c1)CC[C@@H]2NC(=O)c1ccnc2c1CCCO2 [Compound 361]	24.7	411	486	4290	–	–	–
CCc1cn([C@H]2CCc3cc(-n4c(-c5cccnc5N)nc5ccc(-n6cccn6)nc54)ccc32)nn1 [Compound 285]	23.7	608	39.5	2230	–	–	–
COc1cncc(C(=O)N[C@H]2CCc3cc(-n4c(-c5cccnc5N)nc5ccc(-n6cccn6)nc54)ccc32)c1 [Compound 21, (S)—N-(5-(2-(2-aminopyridin-3-yl)-5-(1H-pyrazol-1-yl)-3H-imidazo[4,5-b]pyridin-3-yl)-2,3-dihydro-1H-inden-1-yl)-5-methoxynicotinamide]	4.46	30.2	20.9	1050	–	–	–
Nc1ncccc1-c1nc2ccc(-n3cccn3)nc2n1-c1ccc2c(c1)CC[C@@H]2NC(=O)C1COC1 [Compound 15, (S)—N-(5-(2-(2-aminopyridin-3-yl)-5-(1H-pyrazol-1-yl)-3H-imidazo[4,5-b]pyridin-3-yl)-2,3-dihydro-1H-inden-1-yl)oxetane-3-carboxamide]	215	4030	> 1000	> 10000	–	–	–
Cn1ccc(C(=O)N[C@H]2CCc3cc(-n4c(-c5cccnc5N)nc5ccc(-n6cccn6)nc54)ccc32)n1 [Compound 13, (S)—N-(5-(2-(2-aminopyridin-3-yl)-5-(1H-pyrazol-1-yl)-3H-imidazo[4,5-b]pyridin-3-yl)-2,3-dihydro-1H-inden-1-yl)-1-methyl-1H-pyrazole-3-carboxamide]	49.4	1270	329	3480	–	–	–
Cn1c(C(=O)N[C@H]2CCc3cc(-n4c(-c5cccnc5N)nc5ccc(-n6cccn6)nc54)ccc32)cc2ccccc2c1=O [Compound 8, N—{(S)-5-[2-(2-amino-3-pyridyl)-5-(1-pyrazolyl)-3H-1,3,4-triazainden-3-yl]-1-indanyl}-2-methyl-1-oxo-1,2-dihydro-3-isoquinolinecarboxamide]	2.97	55.8	10.8	523	–	–	–
COc1cc(C(=O)N[C@H]2CCc3cc(-n4c(-c5cccnc5N)nc5ccc(-n6cccn6)nc54)ccc32)cc(C)n1 [Compound 280]	2.75	7.09	33.7	516	–	–	–
Nc1ncccc1-c1nc2ccc(-n3cccn3)nc2n1-c1ccc2c(c1)CC[C@@H]2NC(=O)c1ccc(O)c(C(F)(F)F)c1 [Compound 257]	8.26	273	16.5	1430	–	–	–
COc1cc(C(=O)N[C@H]2CCc3cc(-n4c(-c5cccnc5N)nc5ccc(-n6nccn6)nc54)ccc32)cnc1C(F)F [Compound 364]	20.7	1110	260	2320	–	–	–
COc1cc(C(=O)N[C@H]2CCc3cc(-n4c(-c5cccnc5N)nc5ccc(-n6nccn6)nc54)ccc32)ccn1 [Compound 321]	6.84	207	127	628	–	–	–
Nc1ncccc1-c1nc2ccc(-n3cccn3)nc2n1-c1ccc2c(c1)CC[C@@H]2N [Example 2, (S)-3-(3-(1-amino-2,3-dihydro-1H-inden-5-yl)-5-(1H-pyrazol-1-yl)-3H-imidazo[4,5-b]pyridin-2-yl)pyridin-2-amine]	61.9	858	> 1000	8980	–	–	–
Nc1ncccc1-c1nc2ccc(-n3cccn3)nc2n1-c1ccc2c(c1)CC[C@@H]2NC(=O)Cc1ccccn1 [Compound 50, (S)—N-(5-(2-(2-aminopyridin-3-yl)-5-(1H-pyrazol-1-yl)-3H-imidazo[4,5-b]pyridin-3-yl)-2,3-dihydro-1H-inden-1-yl)-2-(pyridin-2-yl)acetamide]	279	3740	> 1000	> 10000	–	–	–
COc1ncc(C(=O)N[C@H]2CCc3cc(-n4c(-c5cccnc5N)nc5ccc(-n6cccn6)nc54)ccc32)cn1 [Compound 23, (S)—N-(5-(2-(2-aminopyridin-3-yl)-5-(1H-pyrazol-1-yl)-3H-imidazo[4,5-b]pyridin-3-yl)-2,3-dihydro-1H-inden-1-yl)-2-methoxypyrimidine-5-carboxamide]	4.61	46.6	390	1200	–	–	–
Nc1ncccc1-c1nc2ccc(-n3cccn3)nc2n1-c1ccc2c(c1)CC[C@@H]2NC1CCN(C(=O)c2cccnc2)CC1 [Compound 359]	231	> 10000	> 1000	> 10000	–	–	–
Nc1ncccc1-c1nc2ccc(-n3cccn3)nc2n1-c1ccc2c(c1)CC[C@@H]2NC(=O)Cc1cccnc1 [Compound 48, (S)—N-(5-(2-(2-aminopyridin-3-yl)-5-(1H-pyrazol-1-yl)-3H-imidazo[4,5-b]pyridin-3-yl)-2,3-dihydro-1H-inden-1-yl)-2-(pyridin-3-yl)acetamide]	155	2850	> 1000	> 10000	–	–	–
